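Each compound was tested at five concentrations against cells in 96-well plates for 48 hours. At the TGI there is no net growth.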
How the values were obtained:
Test in all cases: NCI-60 cell line screen, 48 h
[1] = system: RPMI-8226 leukemia
[2] = system: SNB-19 CNS
[3] = system: K-562 leukemia
[4] = system: HS 578T breast
[5] = system: SK-OV-3 ovarian
[6] = system: NCI-H23 lung
[7] = system: IGROV1 ovarian
[8] = system: SK-MEL-28 melanoma
[9] = system: MDA-N
[10] = system: PC-3 prostate
[11] = system: NCI-H460 lung
[12] = system: MALME-3M melanoma
[13] = system: RXF 393 renal
[14] = system: OVCAR-4 ovarian
[15] = system: MDA-MB-231 breast
[16] = system: CAKI-1 renal
[17] = system: NCI/ADR-RES ovarian
[18] = system: SF-295 CNS
[19] = system: LOX IMVI melanoma
[20] = system: HL-60(TB) leukemia
[21] = system: NCI-H226 lung
[22] = system: NCI-H522 lung
[23] = system: MCF7 breast
[24] = system: MDA-MB-435
[25] = system: SN12C renal
[26] = system: HCT-15 colon
[27] = system: UACC-257 melanoma
[28] = system: HT29 colon
[29] = system: SNB-75 CNS
[30] = system: HCC-2998 colon
[31] = system: SR leukemia
[32] = system: UO-31 renal
[33] = system: OVCAR-8 ovarian
[34] = system: 786-0 renal
[35] = system: T-47D breast
[36] = system: SF-268 CNS
[37] = system: KM12 colon
[38] = system: OVCAR-5 ovarian
[39] = system: BT-549 breast
[40] = system: SF-539 CNS
[41] = system: U251 CNS
[42] = system: SK-MEL-2 melanoma
[43] = system: HOP-92 NSCLC
[44] = system: MOLT-4 leukemia
[45] = system: SK-MEL-5 melanoma
[46] = system: OVCAR-3 ovarian
[47] = system: M14 melanoma
[48] = system: EKVX NSCLC
[49] = system: UACC-62 melanoma
[50] = system: DU-145 prostate
[51] = system: A498 renal
[52] = system: A549 NSCLC
[53] = system: HCT-116 colon
[54] = system: HOP-62 NSCLC
[55] = system: ACHN renal
[56] = system: COLO 205 colon
[57] = system: SW-620 colon
[58] = system: TK-10 renal

Measured: TGI

CC1CC(C)CN(S(=O)(=O)c2cc(Cl)c(Oc3ccc([N+](=O)[O-])cc3Cl)c(Cl)c2)C1 (stereo not drawn)
> 100 µM: [1] | [2] | [3] | [4] | [5] | [6] | [7] | [8] | [9] | [10] | [11] | [12] | [13] | [14] | [15] | [16] | [17] | [18] | [19] | [20] | [21] | [22] | [23] | [24] | [25] | [26] | [27] | [28] | [29] | [30] | [31] | [32] | [33] | [34] | [35] | [36] | [37] | [38] | [39] | [40] | [41] | [42] | [43] | [44] | [45] | [46] | [47] | [48] | [49] | [50] | [51] | [52] | [53] | [54] | [55] | [56] | [57] | [58]

From PubChem BioAssay (NCI)
